These results are taken from patent US11369565B2, “Amino-pyrimidine skeletal muscle modulators” (Cytokinetics, Inc., priority 2010, dated 2022).

The subject of the assay is rabbit skeletal myofibrils (approximately 90% fast fibers). In words: Activation of fast skeletal myofibrils (PUMA coupled-enzyme ATPase assay at pCa25). In kind it is biochemical. As to conditions: concentration at which the compound increased the enzymatic activity by 40%; calcium at pCa25; PM12 buffer pH 6.8. The method in brief: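 Detergent-washed rabbit psoas myofibrils tested at calcium giving 25% of maximal rate (pCa25). ATPase activity tracked by pyruvate kinase/lactate dehydrogenase coupling, NADH oxidation read as absorbance at 340 nm, in PM12 buffer (12 mM Pipes, 2 mM MgCl2, 1 mM DTT, pH 6.8).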
For `Cc1ccc(F)c([C@]2(CNc3ncc(-c4cccc(C(N)=O)c4)cn3)C[C@@H](F)C2)n1` [3-[2-({[3-fluoro-1-(3-fluoro-6-methyl(2-pyridyl))cyclobutyl]methyl}amino)pyrimidin-5-yl]benzamide], the “Mean AC1.4” value is recorded as “A (A=<1 uM)”. Regarding `CS(=O)(=O)N1CC(NC(=O)c2ccc(F)c(-c3cnc(NC[C@]4(c5ncccc5F)C[C@H](F)C4)nc3)c2)C1` [{4-fluoro-3-[2-({[3-fluoro-1-(3-fluoro(2-pyridyl))cyclobutyl)]methyl}amino)pyridin-5-yl]phenyl}-N-[1-(methylsulfonyl)azetidin-3-yl]carboxamide], the “Mean AC1.4” value worked out at 6 µM. Take `CN(C)c1nc(NC[C@]2(c3ncccc3F)C[C@H](F)C2)ncc1-c1ccccc1` [[2-({[3-fluoro-1-(3-fluoro(2-pyridyl))cyclobutyl]methyl}amino-5-phenylpyrimidin-4-yl]dimethylamine]: the “Mean AC1.4” value is listed as “D (D=>20 uM)”. The value for `CC(C)(Nc1ncc(-c2cc(C(N)=O)on2)cn1)c1ncccc1Cl` [3-(2-{[1-(3-chloro(2-pyridyl))-isopropyl]amino}pyrimidin-5-yl)isoxazole-5-carboxamide] was “C (C=10-20 uM)”; that for `NC(=O)c1cc(-c2cnc(NCC3(c4ncccc4F)CCC3)nc2)ccn1` [4-[2-({[(3-fluoro-2-pyridyl)cyclobutyl]methyl}amino)pyrimidin-5-yl]pyridine-2-carboxamide] was “B (B=1-10 uM)”; that for `NC(=O)c1nc2cnc(NCC3(c4ncccc4F)CCC3)nc2s1` [5-({[(3-fluoro-2-pyridyl)cyclobutyl]methyl}amino)-1,3-thiazolo[5,4-d]pyrimidine-2-carboxamide] was “C (C=10-20 uM)”. The value for `NCc1cnc(-c2cnc(NCC3(c4ncccc4F)CCC3)nc2)s1` [{5-[5-(aminomethyl)(1,3-thiazol-2-yl)]pyrimidin-2-yl}{[(3-fluoro(2-pyridyl))cyclobutyl]methyl}amine] was “C (C=10-20 uM)”. Take `COC(=O)Cc1ccc(F)c(-c2cnc(NC(C)(C)c3ncccc3F)nc2)c1` [methyl 2-[4-fluoro-3-(2-{[1-(3-fluoro(2-pyridyl))-isopropyl]amino}pyrimidin-5-yl)phenyl]acetate]: the “Mean AC1.4” value is “C (C=10-20 uM)”. `COc1nc(NC[C@]2(c3ncccc3F)C[C@@H](F)C2)ncc1-c1ccccc1` [{[3-fluoro-1-(3-fluoro(2-pyridyl))cyclobutyl]methyl)(4-methoxy-5-phenylpyrimidin-2-yl)amine]: the “Mean AC1.4” value is on record as “B (B=1-10 uM)”. With `CC(C)(CNc1ncc(C(=O)NC2(C(N)=O)CC2)cn1)c1ccc(F)cc1` [1-[(2-{[2-(4-fluorophenyl)-2-methylpropyl]amino}pyrimidin-5-yl)carbonylamino] cyclopropanecarboxamide] the entry was “D (D=>20 uM)”; with `NC(=O)c1cc(-c2cnc(NC3(c4ncccc4F)CCC3)nc2)ccn1` [4-(2-{[(3-fluoro-2-pyridyl)cyclobutyl]amino}pyrimidin-5-yl)pyridine-2-carboxamide], “B (B=1-10 uM)”.

Turning to `Cn1nccc1NC(=O)c1cnc(NCC2(c3ncccc3F)CCC2)nc1` [[2-({[(3-fluoro(2-pyridyl))cyclobutyl]methyl)amino)pyrimidin-5-yl]-N-(1-methylpyrazol-5-yl)carboxamide], the “Mean AC1.4” value was “D (D=>20 uM)”. Turning to `COC(=O)c1nc(-c2cnc(NC(C)(C)c3ncccc3Cl)nc2)cn1C` [methyl 4-(2-{[1-(3-chloro(2-pyridyl))-isopropyl}amino}pyrimidin-5-yl)-1-methylimidazole-2-carboxylate], the “Mean AC1.4” value is on record as “D (D=>20 uM)”. Regarding `CC(C)(Nc1ncc(-c2cn3cc(C(N)=O)sc3n2)cn1)c1ncccc1Cl` [6-(2-{[1-(3-chloro(2-pyridyl))-isopropyl}amino}pyrimidin-5-yl) imidazo[2,1-b]1,3-thiazoline-2-carboxamide], the “Mean AC1.4” value is on record as “D (D=>20 uM)”. On to `Cc1cc(NC2CCCCC2)nc(N[C@H](C)c2ccccc2)n1` [((1R)-1-phenylethyl)[4-(cyclohexylamino)-6-methylpyrimidin-2-yl]amine], for which the “Mean AC1.4” value was “B (B=1-10 uM)”.

Consider `NC(=O)c1ccc(F)c(-c2cnc(NCC3(c4ncccc4F)CCC3)nc2)c1` [4-fluoro-3-[2-({[(3-fluoro(2-pyridyl))cyclobutyl]methyl}amino)pyrimidin-5-yl]benzamide], for which the “Mean AC1.4” value was “A (A=<1 uM)”. Turning to `CC(C)(C)OC(=O)NCc1cnc(-c2cnc(NCC3(c4ccccn4)CCC3)nc2)s1` [(tert-butoxy)-N-{[2-(2-{[(2-pyridylcyclobutyl)methyl]amino}pyrimidin-5-yl)(1,3-thiazol-5-yl)]methyl}carboxamide], the “Mean AC1.4” value was “B (B=1-10 uM)”.

With `O=C(Nc1cnc(NCC2(c3ncccc3F)CCC2)nc1)c1nccs1` [N-[2-(([(3-fluoro(2-pyridyl))cyclobutyl]methyl}amino)pyrimidin-5-yl]-1,3-thiazol-2-ylcarboxamide], the “Mean AC1.4” value was “D (D=>20 uM)”. For `COc1nc(NC[C@]2(c3ncccc3F)C[C@H](F)C2)ncc1-c1ccccc1` [{[3-fluoro-1-(3-fluoro(2-pyridyl))cyclobutyl]methyl}(4-methoxy-5-phenylpyrimidin-2-yl)amine], the “Mean AC1.4” value is recorded as “B (B=1-10 uM)”. In the case of `CS(=O)(=O)NC(=O)c1cccc(-c2cnc(NCC3(c4ncccc4F)CC(F)C3)nc2)c1` (stereo not shown) [{3-[2-({[3-fluoro-1-(3-fluoro(2-pyridyl))cyclobutyl]methyl}amino)pyrimidin-5-yl]phenyl}-N-(methylsulfonyl)carboxamide], the “Mean AC1.4” value was “A (A=<1 uM)”.

For the compound `O=C(Nc1ccccc1)c1cnc(NCC2(c3ncccc3F)CCC2)nc1` [[2-({[(3-fluoro(2-pyridyl))cyclobutyl]methyl}amino)pyrimidin-5-yl]-N-benzamide], the “Mean AC1.4” value is on record as “C (C=10-20 uM)”. With `CC(C)(Nc1ncc(-n2cc(CNC(=O)CN)cn2)cn1)c1ncccc1Cl` [2-amino-N-{[1-(2-{[1-(3-chloro(2-pyridyl))-isopropyl]amino)pyrimidin-5-yl)pyrazol-4-yl]methyl]acetamide] the entry was “B (B=1-10 uM)”; with `COC(=O)c1cnc(NCC(C)(C)c2ccc(F)cc2)nc1` [methyl 2-{[2-(4-fluorophenyl)-2-methylpropyl]amino}pyrimidine-5-carboxylate], “D (D=>20 uM)”; with `Fc1ccc(C2(Nc3ncc(Br)cn3)CCC2)cc1` [(5-bromopyrimidin-2-yl)[(4-fluorophenyl)cyclobutyl]amine], “D (D=>20 uM)”.

As to `CC(C)(Nc1ncc(-c2cn3cccc(C(N)=O)c3n2)cn1)c1ncccc1Cl` [2-(2-{[1-(3-chloro(2-pyridyl))-isopropyl]amino}pyrimidin-5-yl)-4-hydroimidazo[1,2-a]pyridine-8-carboxamide], the “Mean AC1.4” value is given as “B (B=1-10 uM)”. Take `CC(C)(Nc1ncc(-c2cc(C#N)ccn2)cn1)c1ncccc1Cl` [2-(2-{[1-(3-chloro(2-pyridyl))-isopropyl]amino}pyrimidin-5-yl)pyridine-4-carbonitrile]: the “Mean AC1.4” value is given as “C (C=10-20 uM)”. As to `COC(=O)c1ccc(O)c(-c2cnc(NC[C@]3(c4ncccc4F)C[C@H](F)C3)nc2)c1` [methyl 3-[2-({[3-fluoro-1-(3-fluoro(2-pyridyl))cyclobutyl]methyl)amino)pyrimidin-5-yl]-4-hydroxybenzoate], the “Mean AC1.4” value was “A (A=<1 uM)”.

As to `Nc1cnc(-c2cnc(NC[C@]3(c4ncccc4F)C[C@H](F)C3)nc2)cn1` [[5-(5-aminopyrazin-2-yl)pyrimidin-2-yl]{[3-fluoro-1-(3-fluoro(2-pyridyl))cyclobutyl]methyl}amine], the “Mean AC1.4” value is on record as “B (B=1-10 uM)”. With `CC(C)(CNc1ncc2c(n1)CN(C(=O)C(N)=O)CC2)c1ccc(F)cc1` [2-(2-{[2-(4-fluorophenyl)-2-methylpropyl]amino}(5,6,7,8-tetrahydropyridino[3,4-d]pyrimidin-7-yl))-2-oxoacetamide] the entry was “D (D=>20 uM)”; with `NC(=O)c1ccnc(-c2cnc(NC[C@]3(c4ncccc4F)C[C@H](F)C3)nc2)n1` [2-[2-({[3-fluoro-1-(3-fluoro(2-pyridyl))cyclobutyl]methyl}amino)pyrimidin-5-yl]pyrimidine-4-carboxamide], “B (B=1-10 uM)”. On to `O=C(Nc1nncs1)c1cnc(NCC2(c3ncccc3F)CCC2)nc1` [[2-({[(3-fluoro(2-pyridyl))cyclobutyl]methyl}amino)pyrimidin-5-yl]-N-(1,3,4-thiadiazol-2-yl)carboxamide], for which the “Mean AC1.4” value is recorded as “B (B=1-10 uM)”.

With `COc1ncc(-c2cnc(NC(C)(C)c3ncccc3Cl)nc2)cc1C#N` [5-(2-{[1-(3-chloro(2-pyridyl))-isopropyl]amino}pyrimidin-5-yl)-2-methoxypyridine-3-carbonitrile], the “Mean AC1.4” value was “D (D=>20 uM)”. For `CC(C)(Nc1ncc(-c2nc(C(N)=O)cs2)cn1)c1ncccc1F` [2-(2-{[1-(3-fluoro(2-pyridyl))-isopropyl]amino}pyrimidin-5-yl)-1,3-thiazole-4-carboxamide], the “Mean AC1.4” value was “D (D=>20 uM)”. Consider `Cc1nc(NC[C@]2(c3ncccc3F)C[C@H](F)C2)ncc1-c1ccc(CC(=O)O)cc1` [2-{4-[2-({[3-fluoro-1-(3-fluoro(2-pyridyl))cyclobutyl]methyl}amino)-4-methylpyrimidin-5-yl]phenyl}acetic acid], for which the “Mean AC1.4” value is “D (D=>20 uM)”. The value for `Nc1ccc(-c2cnc(NC[C@]3(c4ncccc4F)C[C@H](F)C3)nc2)nn1` [[5-(6-aminopyridazin-3-yl)pyrimidin-2-yl]{[3-fluoro-1-fluoro(2-pyridyl))cyclobutyl]methyl}amine] was “B (B=1-10 uM)”.

As for `COCCNc1nc(NC[C@]2(c3ncccc3F)C[C@H](F)C2)ncc1-c1ccccc1` [[2-({[3-fluoro-1-(3-fluoro(2-pyridyl))cyclobutyl]methyl}amino-5-phenylpyrimidin-4-yl](2-methoxyethyl)amine], the “Mean AC1.4” value was “D (D=>20 uM)”. For `CC(C)(Nc1ncc(Br)cn1)c1ncccc1F` [(5-bromopyrimidin-2-yl)[1-(3-fluoro(2-pyridyl))-isopropyl]amine], the “Mean AC1.4” value is listed as “D (D=>20 uM)”.
